The source of these data is the supplement of paper PMC10307832.

What all share (assay): relative viability (nuclei count vs DMSO), 5 days (fraction); higher = more cells survive
Compound in experiment [1]: COC1=CC(c2cc3ccccc3[nH]2)=N/C1=C\c1[nH]c(C)cc1C [Obatoclax] + CS(=O)(=O)CCNCc1ccc(-c2ccc3ncnc(Nc4ccc(OCc5cccc(F)c5)c(Cl)c4)c3c2)o1 [Lapatinib] (partner 2 µM)
Summed up:
(§1)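 Lung cancer cell lines in 1536-well plates got either a single drug or a fixed anchor-drug dose together with five library-drug doses (not always all listed) in √10 steps, by pin tool, on the day after seeding. Nuclei were counted after 5 days, and relative viability is the treated-to-vehicle ratio of nuclei counts. Values are medians of duplicate plates.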

Compound in experiment [2]: CC1=CC(=NN1)NC2=CC(=NC(=N2)/C=C/C3=CC=CC=C3)N4CCN(CC4)C + Nc1ncn([C@H]2C[C@H](O)[C@@H](CO)O2)c(=O)n1 [Decitabine] (partner 2 µM)
Summed up:
as §1

Compound in experiment [3]: CC1=CC(=NN1)NC2=CC(=NC(=N2)/C=C/C3=CC=CC=C3)N4CCN(CC4)C + Cc1nc(Nc2ncc(C(=O)Nc3c(C)cccc3Cl)s2)cc(N2CCN(CCO)CC2)n1 [Dasatinib] (partner 0.075 µM)
Summed up: as §1

Compound in experiment [4]: CC(C)C[C@H](NC(=O)[C@H](Cc1ccccc1)NC(=O)c1cnccn1)B(O)O [Bortezomib] + COc1cccc2cc(-c3nc([C@H]4CC[C@H](C(=O)O)CC4)n4ncnc(N)c34)[nH]c12 [OSI-027] (partner 0.5 µM)
Summed up: as §1

In the case of NCI-H727, the relative viability in experiment [1] (first compound 0.01 µM) worked out at 0.949; in experiment [1] (first compound 0.03162 µM) it was 0.792; in experiment [1] (first compound 0.1 µM), 0.798; in experiment [1] (first compound 0.3162 µM), 0.715; in experiment [1] (first compound 1 µM), 0.457; in experiment [2] (first compound 0.08 µM), 0.515. Moreover, the relative viability in experiment [2] (first compound 0.253 µM) came out at 0.699; in experiment [2] (first compound 0.8 µM), 0.882; in experiment [2] (first compound 2.53 µM) it was 0.793; in experiment [2] (first compound 8 µM), 0.412; in experiment [3] (first compound 0.08 µM), 0.372; in experiment [3] (first compound 0.8 µM) it was 0.407. Moreover, the relative viability in experiment [3] (first compound 2.53 µM) is 0.257; in experiment [3] (first compound 8 µM), 0.186; in experiment [4] (first compound 0.0002 µM) it was 0.557; in experiment [4] (first compound 0.000632 µM), 0.515; in experiment [4] (first compound 0.002 µM) it was 0.494; in experiment [4] (first compound 0.006325 µM), 0.467. Further, in experiment [4] (first compound 0.02 µM), the relative viability stood at 0.378.

Turning to NCI-H1944, the relative viability in experiment [1] (first compound 0.01 µM) was determined as 0.904; in experiment [1] (first compound 0.03162 µM) it was 0.659; in experiment [1] (first compound 0.1 µM), 0.791; in experiment [1] (first compound 0.3162 µM), 0.794; in experiment [1] (first compound 1 µM) it was 0.787; in experiment [2] (first compound 0.08 µM), 0.4. Further, the relative viability in experiment [2] (first compound 0.253 µM) amounted to 0.485; in experiment [2] (first compound 0.8 µM), 0.478; in experiment [2] (first compound 2.53 µM) it was 0.351; in experiment [2] (first compound 8 µM), 0.252; in experiment [3] (first compound 0.08 µM), 0.23; in experiment [3] (first compound 0.253 µM), 0.209. In addition, the relative viability came to 0.197 in experiment [3] (first compound 0.8 µM); 0.147 in experiment [3] (first compound 2.53 µM); 0.107 in experiment [3] (first compound 8 µM); 0.383 in experiment [4] (first compound 0.0002 µM); 0.383 in experiment [4] (first compound 0.000632 µM); 0.449 in experiment [4] (first compound 0.002 µM). Moreover, the figures for the relative viability in experiment [4] (first compound 0.006325 µM) and in experiment [4] (first compound 0.02 µM) were 0.347 and 0.239, respectively.

Turning to NCI-H1437, the relative viability was determined as 0.755 in experiment [1] (first compound 0.01 µM); 0.859 in experiment [1] (first compound 0.03162 µM); 0.712 in experiment [1] (first compound 0.1 µM); 0.707 in experiment [1] (first compound 0.3162 µM); 0.433 in experiment [1] (first compound 1 µM); 0.523 in experiment [2] (first compound 0.08 µM). In addition, the relative viability in experiment [2] (first compound 0.253 µM) worked out at 0.583; in experiment [2] (first compound 0.8 µM), 0.555; in experiment [2] (first compound 2.53 µM), 0.499; in experiment [2] (first compound 8 µM), 0.255; in experiment [3] (first compound 0.08 µM), 0.377; in experiment [3] (first compound 0.253 µM) it was 0.455. In addition, the relative viability in experiment [3] (first compound 0.8 µM) came to 0.404; in experiment [3] (first compound 2.53 µM), 0.273; in experiment [3] (first compound 8 µM), 0.0967; in experiment [4] (first compound 0.0002 µM), 0.86; in experiment [4] (first compound 0.000632 µM) it was 0.825; in experiment [4] (first compound 0.002 µM), 0.871. Besides, the relative viability was 0.138 in experiment [4] (first compound 0.006325 µM) and 0.132 in experiment [4] (first compound 0.02 µM).

As to NCI-H441, the relative viability in experiment [2] (first compound 0.08 µM) is 0.233; in experiment [2] (first compound 0.253 µM), 0.222; in experiment [2] (first compound 0.8 µM), 0.223; in experiment [2] (first compound 2.53 µM), 0.172; in experiment [2] (first compound 8 µM) it was 0.12; in experiment [3] (first compound 0.08 µM), 0.526. For the same cell line, the relative viability in experiment [3] (first compound 0.253 µM) is 0.443; in experiment [3] (first compound 0.8 µM) it was 0.61; in experiment [3] (first compound 2.53 µM), 0.159; in experiment [3] (first compound 8 µM), 0.117; in experiment [4] (first compound 0.0002 µM), 0.648; in experiment [4] (first compound 0.000632 µM), 0.38. Further, the relative viability in experiment [4] (first compound 0.002 µM) is 0.233; in experiment [4] (first compound 0.006325 µM), 0.154; in experiment [4] (first compound 0.02 µM) it was 0.188.

Regarding EMC-BAC-2, the relative viability in experiment [1] (first compound 0.01 µM) worked out at 0.878; in experiment [1] (first compound 0.03162 µM) it was 0.908; in experiment [1] (first compound 0.1 µM) it was 0.886; in experiment [1] (first compound 0.3162 µM), 0.74; in experiment [1] (first compound 1 µM), 0.897; in experiment [2] (first compound 0.08 µM), 0.989. For the same cell line, the relative viability in experiment [2] (first compound 0.253 µM) turned out to be 0.91; in experiment [2] (first compound 0.8 µM) it was 0.946; in experiment [2] (first compound 2.53 µM) it was 0.689; in experiment [2] (first compound 8 µM), 0.282; in experiment [3] (first compound 0.08 µM) it was 0.308; in experiment [3] (first compound 0.253 µM), 0.268. Also, the relative viability in experiment [3] (first compound 0.8 µM) was found to be 0.298; in experiment [3] (first compound 2.53 µM), 0.202; in experiment [3] (first compound 8 µM) it was 0.0961; in experiment [4] (first compound 0.0002 µM), 0.359; in experiment [4] (first compound 0.000632 µM), 0.296; in experiment [4] (first compound 0.002 µM), 0.321. Moreover, the figures for the relative viability in experiment [4] (first compound 0.006325 µM) and in experiment [4] (first compound 0.02 µM) were 0.206 and 0.181, respectively.

With NCI-H647, the relative viability amounted to 1.02 in experiment [1] (first compound 0.01 µM); 0.982 in experiment [1] (first compound 0.03162 µM); 0.48 in experiment [1] (first compound 0.1 µM); 0.189 in experiment [1] (first compound 0.3162 µM); 0.144 in experiment [1] (first compound 1 µM); 0.32 in experiment [2] (first compound 0.08 µM). For the same cell line, the relative viability in experiment [2] (first compound 0.253 µM) is 0.429; in experiment [2] (first compound 0.8 µM) it was 0.36; in experiment [2] (first compound 2.53 µM), 0.121; in experiment [2] (first compound 8 µM), 0.122; in experiment [3] (first compound 0.08 µM), 0.185; in experiment [3] (first compound 0.253 µM), 0.186. In addition, the relative viability is 0.2 in experiment [3] (first compound 0.8 µM); 0.0436 in experiment [3] (first compound 2.53 µM); 0.0226 in experiment [3] (first compound 8 µM); 0.574 in experiment [4] (first compound 0.0002 µM); 0.437 in experiment [4] (first compound 0.000632 µM); 0.483 in experiment [4] (first compound 0.002 µM). The relative viability in experiment [4] (first compound 0.006325 µM) turned out to be 0.0304; in experiment [4] (first compound 0.02 µM) it was 0.0382.

For CAL-12T, the relative viability worked out at 0.609 in experiment [1] (first compound 0.01 µM); 0.733 in experiment [1] (first compound 0.03162 µM); 0.755 in experiment [1] (first compound 0.1 µM); 0.392 in experiment [1] (first compound 0.3162 µM); 0.287 in experiment [1] (first compound 1 µM); 0.52 in experiment [3] (first compound 0.08 µM). The relative viability in experiment [3] (first compound 0.253 µM) is 0.38; in experiment [3] (first compound 0.8 µM) it was 0.342; in experiment [3] (first compound 2.53 µM), 0.0924; in experiment [3] (first compound 8 µM), 0.0804; in experiment [4] (first compound 0.0002 µM), 0.757; in experiment [4] (first compound 0.000632 µM), 0.578. The relative viability in experiment [4] (first compound 0.002 µM) came out at 0.754; in experiment [4] (first compound 0.006325 µM) it was 0.165; in experiment [4] (first compound 0.02 µM), 0.129.

Regarding NCI-H1792, the relative viability stood at 0.945 in experiment [1] (first compound 0.01 µM); 0.796 in experiment [1] (first compound 0.03162 µM); 0.869 in experiment [1] (first compound 0.3162 µM); 0.885 in experiment [1] (first compound 1 µM); 0.435 in experiment [2] (first compound 0.08 µM); 0.556 in experiment [2] (first compound 0.253 µM). Besides, the relative viability stood at 0.377 in experiment [2] (first compound 0.8 µM); 0.332 in experiment [2] (first compound 2.53 µM); 0.0377 in experiment [2] (first compound 8 µM); 0.749 in experiment [3] (first compound 0.08 µM); 0.848 in experiment [3] (first compound 0.253 µM); 0.733 in experiment [3] (first compound 0.8 µM). For the same cell line, the relative viability was 0.525 in experiment [3] (first compound 2.53 µM); 0.151 in experiment [3] (first compound 8 µM); 0.687 in experiment [4] (first compound 0.0002 µM); 0.577 in experiment [4] (first compound 0.000632 µM); 0.563 in experiment [4] (first compound 0.002 µM); 0.654 in experiment [4] (first compound 0.006325 µM). Moreover, the relative viability in experiment [4] (first compound 0.02 µM) worked out at 0.497.
